Results: patent US10023565B2, “N,N′ substituted piperidinamine compounds, and preparation method and usage thereof” (Institute of Pharmacology and Toxicology Academy of …, priority 2013, dated 2018)
Values joined by “and” are separate entries in the source; they are usually repeats but may differ in a detail not shown here. Equal entries are not always repeated. Where two headings read alike, the source gives them in different places.

Test: Mice pharmacokinetic evaluation (LC-MS/MS of plasma)
Type: in vivo, ICR mice
Details: for in vivo absorption and elimination: intragastric administration to mice
Method: Mice pharmacokinetic evaluation of the compound of Example 36 according to the method described below
ICR mice, SPS grade, male, weighed […], license number SCXK (Beijing) 2012-0001, purchased from Beijing Vital River Laboratory Animal Technology Co. Ltd.
Chromatographic conditions: Analytical column: Capcell Pak MG, 5 μm particle size, 50×2.0 mm I.D. (Shiseido Co.), connected with C18 guard column, 4×3.0 mm I.D. (PhenomenexCo., USA), column temperature 25° C., mobile phase: acetonitrile −2 mM ammonium acetate (65:35, v/v), flow rate 0.3 ml/min, internal standard: loratadine.
MS conditions: Electrospray ionization source (Turbo Ionspray source), positive ion mode detection; spray voltage 4500 V; source temperature 400° C.; nebulizer gas (NEB) 8; curtain gas (CUR) 10; collision gas (CAD) 4; scanning mode: multiple reaction monitoring (MRM), ion reactions for quantitative analysis: m/z 354.4→m/z 154.1 (Mol, CE 43 V) and m/z 383→m/z 337 (internal standard loratadine, CE 32 V), scanning time 150 msec.
To 50 μl of plasma, were added 10 μl of internal standard solution (125 ng/ml aqueous solution of loratadine), and 500 μl of n-hexane-dichloromethane-isopropanol (100:50:5, v/v/v); they were uniformly mixed, followed by vortexing for 3 min, and centrifuging for 10 min (3000 rpm); the supernatant was taken and blow dried with air streamat 40° C.; the residue was dissolved with 150 μl […], and subjected to LC-MS/MS analysis.
30 ICR male mice were randomly divided into […], five mices each group, including Mol 10 mg/kg oral group and 1.0 mg/kg tail intravenous injection group. For oral group, before administration, the animals were fasted for 12 h, with free access to water; 0.08, 0.25, 0.5, 1, 2, 4, 6, 8, 12 and 24 h after intragastrical administration, 0.1 ml of orbital venous sinus blood was taken, placed in anticoagulation tube containing heparin sodium, and subjected to 3000 g centrifugation for 15 min; and then, the plasma was taken and stored in a −20° C. refrigerator. […]
Pharmacokinetic parameters were calculated using non-compartment model of Winnonlin® software (Version 5.2.1, USA). Cmax is the measured maximum plasma concentration, Tmax is time to peak plasma concentration after oral administration, t1/2 is drug terminal elimination halflife, MRT is average residence time of drug in vivo, the area AUC0-t under plasma concentration—time curve is calculated by trapezoidal method.
Bioavailability is calculated as follows: […]
AUC: Area (h*ng/ml) under the curve; D: dose (mg/kg)

[1] = IV 1.0 mg/kg, individual mice 4-6, listed as Mol, 1 mg/kg
[2] = Po 10 mg/kg, individual mice 1-3, listed as Mol, 10 mg/kg
[3] = male, ICR, mouse, plasma, iv, 1 mg/kg, IV 1.0 mg/kg, Mean ± SD, n = 3
[4] = male, ICR, mouse, plasma, iv, 1 mg/kg, IV 1.0 mg/kg, individual mice 4-6

For CSc1nccc(N2CCC(N(C)Cc3ccc(C#N)cc3)CC2)n1 [Example 36, N-methyl-N-(4-cyanobenzyl)-N-[1-(2-methylthiopyrimidin-4-yl)piperidin-4-yl]amine], the Ke (IV 1.0 mg/kg, Mean ± SD, n = 3) was 0.97 ± 0.88 h⁻¹, the “AUC0-∞” value [1] was 37.81 ng·h/mL and 58.27 ng·h/mL and the Cmax [1] was 63.90 ng/mL and 71.35 ng/mL. For the same compound, the Ke [1] was 1.98 h⁻¹ and 0.51 h⁻¹ and 0.43 h⁻¹, the MRT0-t [1] was 0.42 h and 1.02 h and 2.40 h and the “MRT0-∞” value [1] was 0.46 h and 1.35 h and 2.71 h. For the same compound, the Tmax [1] was 0.03 h (2×) and 0.08 h, the t1/2 [1] was 0.35 h and 1.37 h and 1.62 h and the “F (bioavailability)” value (Po 10 mg/kg vs IV 1.0 mg/kg, individual mice 1-3, listed as Mol) was 43.20% and 63.94% and 59.39%. For the same compound, the Ke (Po 10 mg/kg, Mean ± SD, n = 3) was 0.43 ± 0.33 h⁻¹, the Cmax (Po 10 mg/kg, Mean ± SD, n = 3, listed as Mol, 10 mg/kg) was 260.2 ± 63.19 ng/mL and the “AUC0-∞” value [2] was 317.86 ng·h/mL and 305.15 ng·h/mL. The Cmax [2] was 260.48 ng/mL and 323.37 ng/mL, the Ke [2] was 0.40 h⁻¹ and 0.77 h⁻¹ and 0.13 h⁻¹ and the MRT0-t [2] was 1.26 h and 0.93 h and 2.56 h. The “MRT0-∞” value [2] was 1.34 h and 0.95 h and 3.57 h, the Tmax [2] was 0.08 h and 1.00 h and 0.25 h and the t1/2 [2] was 1.74 h and 0.90 h and 5.53 h. The “in vivo absorption and elimination” value (10 mg/kg) was “in vivo absorption and elimination of the compound both are faster”, the “in vivo absorption and elimination” value (10 mg/kg, listed as Mol) was “the vivo absorption and elimination after intragastrical administration to mice both were quite fast” and the “Plasma concentration of active compound” value (intravenous 1.0 mg/kg, 0.03 h, individual mice 4-6, listed as Mol, 1 mg/kg) was 99.34 ng/mL and 9.23 ng/mL and 71.35 ng/mL. For the same compound, the “Plasma concentration of active compound” value (intravenous 1.0 mg/kg, 0.08 h, individual mice 4-6, listed as Mol, 1 mg/kg) was 63.90 ng/mL and 63.03 ng/mL, the “Plasma concentration of active compound” value (intravenous 1.0 mg/kg, 0.17 h, individual mice 4-6, listed as Mol, 1 mg/kg) was 56.30 ng/mL and 52.58 ng/mL and the “Plasma concentration of active compound” value (intravenous 1.0 mg/kg, 0.5 h, individual mice 4-6, listed as Mol, 1 mg/kg) was 48.72 ng/mL and 24.29 ng/mL and 21.45 ng/mL. The “Plasma concentration of active compound” value (intravenous 1.0 mg/kg, 1.0 h, individual mice 4-6, listed as Mol, 1 mg/kg) was 10.10 ng/mL and 3.94 ng/mL and 7.02 ng/mL, the “Plasma concentration of active compound” value (intravenous 1.0 mg/kg, 2.0 h, individual mice 4-6, listed as Mol, 1 mg/kg) was 2.35 ng/mL and 0.95 ng/mL and 1.99 ng/mL and the “Plasma concentration of active compound” value (intravenous 1.0 mg/kg, 4.0 h, individual mice 4-6, listed as Mol, 1 mg/kg) was 2.23 ng/mL. The “Plasma concentration of active compound” value (intravenous 1.0 mg/kg, 8.0 h, individual mice 4-6, listed as Mol, 1 mg/kg) was 0.98 ng/mL, the AUC(0-inf) [3] was 51.2 ± 11.6 ng·h/mL and the AUC(0-t) [3] was 49.6 ± 11.4 ng·h/mL. For the same compound, the half-life [3] was 66.6 ± 40.2 min, the Cmax (male, ICR, mouse, plasma, iv, 1 mg/kg, IV 1.0 mg/kg, Mean ± SD, n = 3, read-out: Cmax) was 78.1 ± 18.7 ng/mL and the MRT last (male, ICR, mouse, plasma, iv, 1 mg/kg, IV 1.0 mg/kg, Mean ± SD, n = 3, read-out: MRT0-t) was 1.28 ± 1.01 h. The MRT inf (male, ICR, mouse, plasma, iv, 1 mg/kg, IV 1.0 mg/kg, Mean ± SD, n = 3, read-out: MRT0-∞) was 1.51 ± 1.13 h, the Tmax (male, ICR, mouse, plasma, iv, 1 mg/kg, IV 1.0 mg/kg, Mean ± SD, n = 3, read-out: Tmax) was 0.05 ± 0.03 h and the AUC(0-inf) [4] was 57.6 ng·h/mL. For the same compound, the AUC(0-t) [4] was 56.4 ng·h/mL, the Cmax (male, ICR, mouse, plasma, iv, 1 mg/kg, IV 1.0 mg/kg, individual mice 4-6, read-out: Cmax) was 99.3 ng/mL and the concentration at 0.03 h (male, ICR, mouse, plasma, iv, 1 mg/kg, intravenous 1.0 mg/kg, 0.03 h, Mean, read-out: Plasma concentration of active compound) was 60 ng/mL. It also gave a concentration at 0.08 h (male, ICR, mouse, plasma, iv, 1 mg/kg, intravenous 1.0 mg/kg, 0.08 h, Mean, read-out: Plasma concentration of active compound) of 74.5 ng/mL and a concentration at 0.08 h (male, ICR, mouse, plasma, iv, 1 mg/kg, intravenous 1.0 mg/kg, 0.08 h, individual mice 4-6, read-out: Plasma concentration of active compound) of 96.6 ng/mL.
